Key:
Assay in all cases: relative viability (nuclei count vs DMSO), 5 days (fraction); higher = more cells survive
ChaGo-K-1 = test system: ChaGo-K-1
Outline: (§1)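 Nuclei were stained with Hoechst during a one-step fixation (final 0.05% Triton X-100, 1% formaldehyde, 1 ug/ml Hoechst) carried out 5 days after dosing, then counted on 4× images. The cells, lung cancer lines in 1536-well plates, had been dosed by pin tool the day after seeding with one drug alone or a fixed anchor-drug dose plus five library-drug doses (not always all listed) in √10 steps. Relative viability is the nuclei count in treated wells divided by that in vehicle wells, and each value is the median of duplicate plates.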

EMC-BAC-2 = test system: EMC-BAC-2
Outline: as §1

EPLC-272H = test system: EPLC-272H
Outline: as §1

HCC-44 = test system: HCC-44
Outline: as §1

HOP-62 = test system: HOP-62
Outline: as §1

LCLC-97TM1 = test system: LCLC-97TM1
Outline: as §1

LOU-NH91 = test system: LOU-NH91
Outline: as §1

NCI-H1395 = test system: NCI-H1395
Outline: as §1

NCI-H1975 = test system: NCI-H1975
Outline: as §1

NCI-H1993 = test system: NCI-H1993
Outline: as §1

NCI-H2085 = test system: NCI-H2085
Outline: as §1

NCI-H2126 = test system: NCI-H2126
Outline: as §1

NCI-H2170 = test system: NCI-H2170
Outline: as §1

NCI-H2228 = test system: NCI-H2228
Outline: as §1

NCI-H2405 = test system: NCI-H2405
Outline: as §1

NCI-H3122 = test system: NCI-H3122
Outline: as §1

NCI-H322M = test system: NCI-H322M
Outline: as §1

NCI-H460 = test system: NCI-H460
Outline: as §1

NCI-H520 = test system: NCI-H520
Outline: as §1

NCI-H647 = test system: NCI-H647
Outline: as §1

SK-LU-1 = test system: SK-LU-1
Outline: as §1

## C=C1C(=O)O[C@@H](CCCCCCCC)[C@@H]1C(=O)O [C-75] + CC1(C)CCC(c2ccc(Cl)cc2)=C(CN2CCN(c3ccc(C(=O)NS(=O)(=O)c4ccc(N[C@H](CCN5CCOCC5)CSc5ccccc5)c(S(=O)(=O)C(F)(F)F)c4)cc3)CC2)C1 [Navitoclax] (partner 0.5 µM)
ChaGo-K-1; first compound 0.08 µM
  relative viability: 0.971
ChaGo-K-1; first compound 0.253 µM
  relative viability: 0.953
ChaGo-K-1; first compound 0.8 µM
  relative viability: 0.833
ChaGo-K-1; first compound 2.53 µM
  relative viability: 0.747
ChaGo-K-1; first compound 8 µM
  relative viability: 0.956
EMC-BAC-2; first compound 0.08 µM
  relative viability: 1.13
EMC-BAC-2; first compound 0.253 µM
  relative viability: 1.18
EMC-BAC-2; first compound 0.8 µM
  relative viability: 1.15
EMC-BAC-2; first compound 2.53 µM
  relative viability: 1.07
EMC-BAC-2; first compound 8 µM
  relative viability: 1.18
EPLC-272H; first compound 0.08 µM
  relative viability: 1.22
EPLC-272H; first compound 0.253 µM
  relative viability: 1.03
EPLC-272H; first compound 0.8 µM
  relative viability: 1.21
EPLC-272H; first compound 2.53 µM
  relative viability: 0.856
EPLC-272H; first compound 8 µM
  relative viability: 0.961
HCC-44; first compound 0.08 µM
  relative viability: 0.972
HCC-44; first compound 0.253 µM
  relative viability: 0.959
HCC-44; first compound 0.8 µM
  relative viability: 0.905
HCC-44; first compound 2.53 µM
  relative viability: 0.791
HCC-44; first compound 8 µM
  relative viability: 1.02
HOP-62; first compound 0.08 µM
  relative viability: 1.02
HOP-62; first compound 0.253 µM
  relative viability: 1.25
HOP-62; first compound 0.8 µM
  relative viability: 1.04
HOP-62; first compound 2.53 µM
  relative viability: 0.889
HOP-62; first compound 8 µM
  relative viability: 0.857
LCLC-97TM1; first compound 0.08 µM
  relative viability: 0.36
LCLC-97TM1; first compound 0.253 µM
  relative viability: 0.697
LCLC-97TM1; first compound 0.8 µM
  relative viability: 0.357
LCLC-97TM1; first compound 2.53 µM
  relative viability: 0.304
LCLC-97TM1; first compound 8 µM
  relative viability: 0.292
LOU-NH91; first compound 0.08 µM
  relative viability: 0.756
LOU-NH91; first compound 0.253 µM
  relative viability: 0.679
LOU-NH91; first compound 0.8 µM
  relative viability: 0.643
LOU-NH91; first compound 2.53 µM
  relative viability: 0.55
LOU-NH91; first compound 8 µM
  relative viability: 0.776
NCI-H1395; first compound 0.08 µM
  relative viability: 1.13
NCI-H1395; first compound 0.253 µM
  relative viability: 1.24
NCI-H1395; first compound 0.8 µM
  relative viability: 0.989
NCI-H1395; first compound 2.53 µM
  relative viability: 0.813
NCI-H1395; first compound 8 µM
  relative viability: 1.26
NCI-H1975; first compound 0.08 µM
  relative viability: 0.983
NCI-H1975; first compound 0.253 µM
  relative viability: 1.1
NCI-H1975; first compound 0.8 µM
  relative viability: 1.12
NCI-H1975; first compound 2.53 µM
  relative viability: 1.1
NCI-H1975; first compound 8 µM
  relative viability: 1.14
NCI-H1993; first compound 0.08 µM
  relative viability: 1.03
NCI-H1993; first compound 0.253 µM
  relative viability: 0.944
NCI-H1993; first compound 0.8 µM
  relative viability: 0.995
NCI-H1993; first compound 2.53 µM
  relative viability: 0.938
NCI-H1993; first compound 8 µM
  relative viability: 1.11
NCI-H2085; first compound 0.08 µM
  relative viability: 1.15
NCI-H2085; first compound 0.253 µM
  relative viability: 1.2
NCI-H2085; first compound 0.8 µM
  relative viability: 1.07
NCI-H2085; first compound 2.53 µM
  relative viability: 1.11
NCI-H2085; first compound 8 µM
  relative viability: 1.08
NCI-H2126; first compound 0.08 µM
  relative viability: 0.869
NCI-H2126; first compound 0.253 µM
  relative viability: 0.902
NCI-H2126; first compound 0.8 µM
  relative viability: 0.871
NCI-H2126; first compound 2.53 µM
  relative viability: 0.718
NCI-H2126; first compound 8 µM
  relative viability: 0.818
NCI-H2170; first compound 0.08 µM
  relative viability: 0.71
NCI-H2170; first compound 0.253 µM
  relative viability: 0.641
NCI-H2170; first compound 0.8 µM
  relative viability: 0.556
NCI-H2170; first compound 2.53 µM
  relative viability: 0.525
NCI-H2170; first compound 8 µM
  relative viability: 0.586
NCI-H2228; first compound 0.08 µM
  relative viability: 1.04
NCI-H2228; first compound 0.253 µM
  relative viability: 1.21
NCI-H2228; first compound 0.8 µM
  relative viability: 0.707
NCI-H2228; first compound 2.53 µM
  relative viability: 0.973
NCI-H2228; first compound 8 µM
  relative viability: 0.75
NCI-H2405; first compound 0.08 µM
  relative viability: 0.93
NCI-H2405; first compound 0.253 µM
  relative viability: 0.633
NCI-H2405; first compound 0.8 µM
  relative viability: 0.863
NCI-H2405; first compound 2.53 µM
  relative viability: 0.83
NCI-H2405; first compound 8 µM
  relative viability: 0.802
NCI-H3122; first compound 0.08 µM
  relative viability: 0.973
NCI-H3122; first compound 0.253 µM
  relative viability: 1.05
NCI-H3122; first compound 0.8 µM
  relative viability: 0.986
NCI-H3122; first compound 8 µM
  relative viability: 1.09
NCI-H322M; first compound 0.08 µM
  relative viability: 1.18
NCI-H322M; first compound 0.253 µM
  relative viability: 1.54
NCI-H322M; first compound 0.8 µM
  relative viability: 1.28
NCI-H322M; first compound 2.53 µM
  relative viability: 1.12
NCI-H322M; first compound 8 µM
  relative viability: 1.29
NCI-H460; first compound 0.08 µM
  relative viability: 1.14
NCI-H460; first compound 0.253 µM
  relative viability: 1.23
NCI-H460; first compound 0.8 µM
  relative viability: 1.04
NCI-H460; first compound 8 µM
  relative viability: 1.08
NCI-H520; first compound 0.08 µM
  relative viability: 1.13
NCI-H520; first compound 0.253 µM
  relative viability: 1.24
NCI-H520; first compound 0.8 µM
  relative viability: 1
NCI-H520; first compound 2.53 µM
  relative viability: 0.837
NCI-H520; first compound 8 µM
  relative viability: 0.82
NCI-H647; first compound 0.08 µM
  relative viability: 1.12
NCI-H647; first compound 0.253 µM
  relative viability: 1.05
NCI-H647; first compound 2.53 µM
  relative viability: 0.875
NCI-H647; first compound 8 µM
  relative viability: 0.857
SK-LU-1; first compound 0.08 µM
  relative viability: 0.932
SK-LU-1; first compound 0.253 µM
  relative viability: 0.85
SK-LU-1; first compound 0.8 µM
  relative viability: 0.763
SK-LU-1; first compound 2.53 µM
  relative viability: 0.709
SK-LU-1; first compound 8 µM
  relative viability: 0.751

From the supplement of paper PMC10307832
